Laboratory results as given in patent publication US12104188B2, “Modified caspase-9 polypeptides and methods of use thereof” (Allogene Therapeutics, Inc., priority 2017, dated 2024).

How the values were obtained:
[1] = humans; Iuliucci J D, et al., 2001; cited from earlier work
[2] = molecular target: FKBP12 polypeptide with the F36V mutation (Homo sapiens, UniProt P62942, F37V); conditions: cited from earlier work
[3] = system: primary T cells from Donor #8; assay: Example 2: induction of apoptosis in Donor #8 T cells comprising chimeric caspase-9 proteins with or without a CAR, in response to AP1903; type: cell-based, human; conditions: Day 1 post-AP1903, Donor #8 primary T cells, FIG. 6
Description: T cells derived from donor #8 comprising various different chimeric caspase 9 proteins, some of which further comprise a CAR were prepared as described in part 1A above and were assayed for expression of chimeric caspase-9 and for induced apoptosis in response to the dimeric ligand AP1903.
For each assay, about 1,000,000 cells containing a particular chimeric caspase 9 protein were incubated with or without 10 nM AP1903 for 3 or 4 days. On days 1, 2 and 3 post-AP1903 (FIGS. 6, 7, and 8, respectively), the cells were measured by flow cytometry to determine the percentage of live cells that are GFP positive (+) (GFP is a marker for the chimeric caspase 9 protein). Thus, it can be extrapolated that the greater the % of live GFP+ cells, the lower the apoptotic activity of the respective chimeric caspase 9 protein in this assay.
In FIGS. 6-9, for each different chimeric caspase-9 protein, expressed with or without a CAR, there are two adjacent bars. The left-side bar is for the cells incubated without AP1903, and the right-side bar is for the corresponding cells incubated with AP1903. […] This observation is consistent with the application of the D330M-D379E construct as a fast-acting “safety switch” for CAR-T therapies.

primary T cells = assay: Induction of apoptosis in T cells containing chimeric caspase 9 proteins: % live GFP positive cells by flow cytometry, with or without AP1903; type: cell-based, human; conditions: for % GFP, AP1903 / % GFP, 0 mM AP1903: % GFP positive cells, 4 days after AP1903
Description: Primary T cells were prepared from each of four different human blood donors (“Donor 1”, “Donor 2”, “Donor 3” and “Donor 8”) as follows.
Previously-frozen primary T cells were thawed and activated with ImmunoCult Human CD3/CD28 T cell activator (StemCell, Cat #10971). 48 hours later, a lentiviral vector which contains a polynucleotide encoding a chimeric caspase 9 protein as described above was added to the activated primary T cells for transduction. Different lentiviral vectors were added to different samples of the primary T cells to test the activity of the different chimeric caspase 9 proteins. The respective lentiviral vectors were provided to the T cells in filtered supernatant from the HEK293T cells. T cells transduced with a polynucleotide encoding a chimeric caspase 9 protein subsequently expressed the respective chimeric caspase 9 protein.
T cells containing different chimeric caspase 9 proteins prepared as described in part A above were assayed for apoptosis in response to the dimeric ligand AP1903.
[…] On the 3rd or 4th day, the cells were measured by flow cytometry to determine the percentage of live cells that are GFP positive (+). (GFP is a marker for the chimeric caspase 9 protein.) Thus, it can be extrapolated that the greater the % of live GFP+ cells, the lower the apoptotic activity of the respective chimeric caspase 9 protein in this assay.

[4] = Table 3, Donor # 1, primary T cells
[5] = Table 4, Donor # 2, primary T cells
[6] = Table 5, Donor # 1, primary T cells
[7] = Table 6, Donor # 1, primary T cells
[8] = Table 7, Donor # 3, primary T cells

Sequence of FKBP12 polypeptide with the F36V mutation (P62942 whole entry F37V): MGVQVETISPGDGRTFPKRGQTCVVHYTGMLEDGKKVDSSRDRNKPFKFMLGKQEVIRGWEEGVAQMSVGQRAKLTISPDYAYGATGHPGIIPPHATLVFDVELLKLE

Row | Compound | well-tolerated dose [1] | affinity for FKBP12 with the F36V mutation compared with wild-type FKBP12 [2] | affinity of FKBP12 containing the F36V mutation for AP1903 [2] | speed of induced apoptosis relative to the N405Q construct [3] | % GFP, AP1903 (primary T cells; [4]) [%] | % GFP, 0 mM AP1903 (primary T cells; [4]) [%] | % GFP, AP1903 (primary T cells; [5]) [%] | % GFP, 0 mM AP1903 (primary T cells; [5]) [%] | % GFP, AP1903 (primary T cells; [6]) [%] | % GFP, 0 mM AP1903 (primary T cells; [6]) [%] | % GFP, AP1903 (primary T cells; [7]) [%] | % GFP, 0 mM AP1903 (primary T cells; [7]) [%] | % GFP, AP1903 (primary T cells; [8]) [%] | % GFP, 0 mM AP1903 (primary T cells; [8]) [%] | activity profile (high % GFP+ without AP1903, large difference with AP1903) (primary T cells; assessment of Tables 3-7)
1 | CC[C@H](C(=O)N1CCCC[C@H]1C(=O)O[C@H](CCc1ccc(OC)c(OC)c1)c1cccc(OCC(=O)NCCNC(=O)COc2cccc([C@@H](CCc3ccc(OC)c(OC)c3)OC(=O)[C@@H]3CCCCN3C(=O)[C@@H](CC)c3cc(OC)c(OC)c(OC)c3)c2)c1)c1cc(OC)c(OC)c(OC)c1 (relative stereo) [AP1903, 2-Piperidinecarboxylic acid, 1-[(2S)-1-oxo-2-(3,4,5-trimethoxyphenyl)butyl]-, 1,2 ethanediylbis[imino(2-oxo-2,1-ethanediyl)oxy-3,1-phenylene[(1R)-3-(3,-4-dimethoxyphenyl)propylidene]]ester, [2S [1(R*),2R*[S*[S*[1(R*),2R*]]]]]-(9Cl)] | at least 1 mg/kg | much greater affinity | high affinity |  |  |  |  |  |  |  |  |  |  |  | 
2 | D330M-D379E: chimeric caspase 9 protein (SEQ ID NO: 6): FKBP12 F36V dimerization domain, linker, caspase-9 polypeptide without CARD, D330M-D379E double mutation |  |  |  | approximately 3 fold | 7 | 72 | 2 | 35 | 6.95 | 72.3 | 5.04 | 53.4 | 7 | 71 | attractive activity profiles
